The results in this text go back to patent US10053468B2, “Heterocyclic compound” (TAKEDA PHARMACEUTICAL COMPANY LIMITED, priority 2013, dated 2018).

Read-outs that look alike come from different tables or passages of the source.

Experiment [1] concerns the target T1, RORγt (Homo sapiens, UniProt P51449).
T1 sequence (P51449 1-497 isoform P51449-2): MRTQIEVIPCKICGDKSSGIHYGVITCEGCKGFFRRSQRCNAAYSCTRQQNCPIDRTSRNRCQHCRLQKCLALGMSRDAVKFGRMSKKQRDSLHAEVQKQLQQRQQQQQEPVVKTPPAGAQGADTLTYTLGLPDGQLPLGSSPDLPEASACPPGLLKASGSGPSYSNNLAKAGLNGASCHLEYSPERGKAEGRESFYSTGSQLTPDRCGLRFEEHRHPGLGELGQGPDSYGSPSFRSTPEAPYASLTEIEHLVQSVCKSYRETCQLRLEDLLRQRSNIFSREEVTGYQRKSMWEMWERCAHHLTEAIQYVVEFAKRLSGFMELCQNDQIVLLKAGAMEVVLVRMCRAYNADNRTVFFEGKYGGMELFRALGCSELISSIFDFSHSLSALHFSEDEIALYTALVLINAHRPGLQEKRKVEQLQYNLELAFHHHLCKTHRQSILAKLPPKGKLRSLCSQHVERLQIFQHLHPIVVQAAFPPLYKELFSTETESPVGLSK
The experiment in a line: RORγt binding test using fluorescent-labeled synthetic ligand (TR-FRET). The following applies: read-out: Binding inhibitory rate of fluorescent-labeled synthetic ligand to RORγt at test compound 1 μM (%). Here is the method:
RORγt Binding Test Using Fluorescent-labeled Synthetic Ligand
The binding activity of the test compound to RORγt was measured by a time resolved fluorescence resonance energy transfer method (TR-FRET) utilizing histidine-tagged RORγt, fluorescent-labeled synthetic ligand, and terbium-labeled anti-histidine tag antibody (Invitrogen). First, a test compound diluted with an assay buffer (20 mM Tris-HCl (pH 7.5), 100 mM NaCl, 1 mM DTT, 0.1% BSA) was added to a 384 well plate by 3 μL. Then, RORγt diluted with an assay buffer to 240 nM was added by 3 μL, after which fluorescent-labeled synthetic ligand diluted with the assay buffer to 12 μM was added by 3 μL, and the mixture was stood at room temperature for 20 min. Thereafter, a terbium-labeled anti-histidine tag antibody diluted with the assay buffer to 8 nM was added by 3 μL. The mixture was stood at room temperature for 20 min, and fluorescence intensity (excitation wavelength 320 nm, fluorescence wavelength 520 nm, delay time 100 microseconds) was measured by Envision (PerkinElmer).
Background: Time-resolved FRET reads energy transfer from a long-lived donor to a nearby acceptor.

Experiment [2] concerns the target T1, RORγt. Nature of the experiment: RORγt binding test using fluorescent-labeled cholesterol (TR-FRET). The conditions noted are these: read-out: Binding inhibitory rate of fluorescent-labeled cholesterol to RORγt at test compound 1 μM (%). The essentials: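 After 20 min at room temperature with His-tagged RORγt and BODIPY-cholesterol in pH 7.5 Tris buffer (NaCl, DTT, BSA), compound wells got terbium anti-His antibody for another 20 min. Time-resolved FRET was read with excitation 320 nm, emission 520 nm and a 100 µs delay.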

For experiment [3], the target named is T1, RORγt. Nature of the experiment: Jurkat reporter test (human IL-17 ROR response element luciferase, RORγt vector). In kind it is cell-based. The following applies: read-out: Luminescence level inhibitory rate at test compound 3 μM (%). The gist of the method:
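Luminescence (Bright-Glo, 10 min, RT) was measured after overnight compound treatment of electroporated Jurkat cells (1350 V, 10 ms interval, 3 pulses). The reaction medium was RPMI with 10% lipid-reduced FCS, 10 mM HEPES (pH 7.5) and 5 μM lovastatin.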

For experiment [4], the target named is T1, RORγt. The experiment in a line: Cofactor recruitment test (Alpha Screen, biotinylated SRC-1 peptide). In kind it is biochemical. The following applies: read-out: Signal value inhibitory rate at test compound 1 μM (%). Here is the method:
Cofactor Recruitment Test
Cofactor recruitment test was performed by Alpha Screen (Histidine Detection Kit, PerkinElmer) method. First, a test compound was diluted with an assay buffer (50 mM Tris-HCl (pH 7.5), 50 mM KCl, 1 mM DTT, 0.1% BSA) and added to a 384 well plate by 5 μL. […] The mixture was stood in a dark place for 1 hr, and the signal value was measured by Envision (PerkinElmer).

Setting [5] is: test compound 3 μM, Jurkat cells.

`COc1ccc2c(c1)CCN(C(=O)c1cc(O)no1)[C@H]2C(=O)Nc1ccc([Si](C)(C)C)c(F)c1` [Example 7, (1R)-N-(3-fluoro-4-(trimethylsilyl)phenyl)-2-((3-hydroxy-1,2-oxazol-5-yl)carbonyl)-6-methoxy-1,2,3,4-tetrahydroisoquinoline-1-carboxamide]: the inhibition at 1 µM on RORγt [1] was 101%; on RORγt [2], 102%; on RORγt [4], 92.8%. Also, the inhibition at 3 µM on RORγt [3] (Jurkat) worked out at 101%.

As for `COc1ccc2c(c1)CCN(C(=O)c1cc(O)no1)[C@H]2C(=O)Nc1ccc(C(C)(C)C)c(F)c1` [Example 13, (1R)-N-(4-tert-butyl-3-fluorophenyl)-2-((3-hydroxy-1,2-oxazol-5-yl)carbonyl)-6-methoxy-1,2,3,4-tetrahydroisoquinoline-1-carboxamide], the inhibition at 1 µM on RORγt [1] came out at 102%; on RORγt [2] it was 100%; on RORγt [4] it was 80.4%. At RORγt [3] (setting [5]), the inhibition at 3 µM turned out to be 101%.

Consider `COc1ccc2c(c1)CCN(C(=O)[C@@H]1CNC(=O)C1)[C@H]2C(=O)Nc1ccc(C(C)(C)C)c(F)c1` [Example 25, (1R)-N-(4-tert-butyl-3-fluorophenyl)-6-methoxy-2-(((3S)-5-oxopyrrolidin-3-yl)carbonyl)-1,2,3,4-tetrahydroisoquinoline-1-carboxamide], for which the inhibition at 1 µM at RORγt [1] worked out at 101%; at RORγt [2], 102%; at RORγt [4], 85.8%. The inhibition at 3 µM on RORγt [3] (setting [5]) was found to be 102%.

Take `COc1ccc2c(c1)CCN(C(=O)[C@H]1CNC(=O)C1)[C@H]2C(=O)Nc1ccc(C(C)(C)C)c(F)c1` [Example 26, (1R)-N-(4-tert-butyl-3-fluorophenyl)-6-methoxy-2-(((3R)-5-oxopyrrolidin-3-yl)carbonyl)-1,2,3,4-tetrahydroisoquinoline-1-carboxamide]: the inhibition at 1 µM was 101% on RORγt [1], 97.7% at RORγt [2] and 81.5% on RORγt [4]. Further, on RORγt [3] (setting [5]), the inhibition at 3 µM is 102%.

With `COc1ccc2c(n1)CCN(C(=O)Cc1cc(O)no1)C2C(=O)Nc1ccc(C(C)(C)C)c(F)c1` (centres unmarked) [Example 41, N-(4-tert-butyl-3-fluorophenyl)-6-((3-hydroxy-1,2-oxazol-5-yl)acetyl)-2-methoxy-5,6,7,8-tetrahydro-1,6-naphthyridine-5-carboxamide], the inhibition at 1 µM at RORγt [1] was found to be 102%; at RORγt [2], 102%; at RORγt [4], 74.9%. The inhibition at 3 µM on RORγt [3] (setting [5]) came out at 98.9%.

With `CCOc1ccc2c(c1)CCN(C(=O)CCCC(=O)O)[C@H]2C(=O)Nc1ccc([Si](C)(C)C)c(C#N)c1` [Example 221, 5-((1R)-1-((3-cyano-4-(trimethylsilyl)phenyl)carbamoyl)-6-ethoxy-3,4-dihydroisoquinolin-2(1H)-yl)-5-oxopentanoic acid], the inhibition at 1 µM on RORγt [1] is 102%; at RORγt [4] it was 97%. Also, the inhibition at 3 µM at RORγt [3] (Jurkat) worked out at 101%.

For the molecule `CCOc1ccc2c(c1)CCN(C(=O)NCCC(=O)O)[C@H]2C(=O)Nc1cc(F)c([Si](C)(C)C)c(F)c1` [Example 227, N-(((1R)-1-((3,5-difluoro-4-(trimethylsilyl)phenyl)carbamoyl)-6-ethoxy-3,4-dihydroisoquinolin-2(1H)-yl)carbonyl)-beta-alanine], the inhibition at 1 µM at RORγt [1] is 102%; on RORγt [4], 95%. The inhibition at 3 µM at RORγt [3] (Jurkat) was 101%.

`CCOc1ccc2c(c1)CCN(C(=O)N1CC(CC(=O)O)C1)[C@H]2C(=O)Nc1cc(F)c([Si](C)(C)C)c(F)c1` [Example 231, (1-(((1R)-1-((3,5-difluoro-4-(trimethylsilyl)phenyl)carbamoyl)-6-ethoxy-3,4-dihydroisoquinolin-2(1H)-yl)carbonyl)azetidin-3-yl)acetic acid]: the inhibition at 1 µM at RORγt [1] worked out at 101%; at RORγt [4], 96%. For the same molecule, the inhibition at 3 µM on RORγt [3] (Jurkat) was 101%.

In the case of `C[Si](C)(C)c1c(F)cc(NC(=O)[C@H]2c3ccc(S(C)(=O)=O)cc3CCN2C(=O)CCCC(=O)O)cc1F` [Example 235, 5-((1R)-1-((3,5-difluoro-4-(trimethylsilyl)phenyl)carbamoyl)-6-(methylsulfonyl)-3,4-dihydroisoquinolin-2(1H)-yl)-5-oxopentanoic acid], the inhibition at 1 µM on RORγt [1] was 102%; at RORγt [4] it was 45%. Also, the inhibition at 3 µM at RORγt [3] (Jurkat) is 93%.

`CCOc1ccc2c(c1)CCN(C(=O)NCCCC(=O)O)[C@H]2C(=O)Nc1cc(F)c([Si](C)(C)C)c(F)c1` [Example 238, 4-((((1R)-1-((3,5-difluoro-4-(trimethylsilyl)phenyl)carbamoyl)-6-ethoxy-3,4-dihydroisoquinolin-2(1H)-yl)carbonyl)amino)butanoic acid]: the results for the inhibition at 1 µM on RORγt [1] and at RORγt [4] were 101% and 92%, respectively. In addition, the inhibition at 3 µM on RORγt [3] (Jurkat) stood at 100%.

For `CCOc1ccc2c(c1)CCN(C(=O)CC(C)(O)CC(=O)O)[C@H]2C(=O)Nc1cc(F)c([Si](C)(C)C)c(F)c1` (stereo partly drawn) [Example 240, 5-((1R)-1-((3,5-difluoro-4-(trimethylsilyl)phenyl)carbamoyl)-6-ethoxy-3,4-dihydroisoquinolin-2(1H)-yl)-3-hydroxy-3-methyl-5-oxopentanoic acid], the inhibition at 1 µM on RORγt [1] turned out to be 101%; at RORγt [4], 91%. At RORγt [3] (Jurkat), the inhibition at 3 µM worked out at 101%.

`COc1ccc2c(c1)CCN(C(=O)NCCCC(=O)O)[C@H]2C(=O)Nc1cc(F)c([Si](C)(C)C)c(F)c1` [Example 242, 4-((((1R)-1-((3,5-difluoro-4-(trimethylsilyl)phenyl)carbamoyl)-6-methoxy-3,4-dihydroisoquinolin-2(1H)-yl)carbonyl)amino)butanoic acid]: the inhibition at 1 µM at RORγt [1] was found to be 101%; on RORγt [4], 94%. The inhibition at 3 µM at RORγt [3] (Jurkat) came out at 101%.

For `COc1ccc2c(c1)CCN(C(=O)[C@@H](O)CCC(=O)O)[C@H]2C(=O)Nc1cc(F)c([Si](C)(C)C)c(F)c1` [Example 248, (4S)-5-((1R)-1-((3,5-difluoro-4-(trimethylsilyl)phenyl)carbamoyl)-6-methoxy-3,4-dihydroisoquinolin-2(1H)-yl)-4-hydroxy-5-oxopentanoic acid], the inhibition at 1 µM worked out at 101% on RORγt [1] and 87% on RORγt [4]. Moreover, the inhibition at 3 µM at RORγt [3] (Jurkat) stood at 100%.

For the molecule `C[Si](C)(C)c1c(F)cc(NC(=O)[C@H]2c3ccc4c(c3CCN2C(=O)CCCC(=O)O)OCO4)cc1F` [Example 254, 5-((6R)-6-((3,5-difluoro-4-(trimethylsilyl)phenyl)carbamoyl)-8,9-dihydro[1,3]dioxolo[4,5-f]isoquinolin-7(6H)-yl)-5-oxopentanoic acid], the inhibition at 1 µM turned out to be 102% at RORγt [1] and 101% on RORγt [4]. Further, the inhibition at 3 µM at RORγt [3] (Jurkat) stood at 102%.

With `CC1(C)CCc2cc(NC(=O)[C@H]3c4ccc5c(c4CCN3C(=O)CCCC(=O)O)OCO5)cc(F)c21` [Example 256, 5-((6R)-6-((7-fluoro-1,1-dimethyl-2,3-dihydro-1H-inden-5-yl)carbamoyl)-8,9-dihydro[1, 3]dioxolo[4,5-f]isoquinolin-7 (6H)-yl)-5-oxopentanoic acid], the inhibition at 1 µM came out at 100% at RORγt [1] and 102% on RORγt [4]. Besides, the inhibition at 3 µM at RORγt [3] (setting [5]) is 83%.
